In article PMC12974487, “Inhibition of FicD-mediated AMPylation and deAMPylation by isoprenoid diphosphates” (Proceedings of the National Academy of Sciences of the …, 2026):

Biological target: T1, FicD^L258D (Homo sapiens, UniProt Q9BVA6, L258D)
T1 construct: soluble ER luminal domain (residues 105 to 458) of wild-type human FicD and three mutants; 6xHis-Sumo (N, cleaved yes); made in house; host or cells: Rosetta(DE3) E. coli
T1 sequence (Q9BVA6 105-458 L258D): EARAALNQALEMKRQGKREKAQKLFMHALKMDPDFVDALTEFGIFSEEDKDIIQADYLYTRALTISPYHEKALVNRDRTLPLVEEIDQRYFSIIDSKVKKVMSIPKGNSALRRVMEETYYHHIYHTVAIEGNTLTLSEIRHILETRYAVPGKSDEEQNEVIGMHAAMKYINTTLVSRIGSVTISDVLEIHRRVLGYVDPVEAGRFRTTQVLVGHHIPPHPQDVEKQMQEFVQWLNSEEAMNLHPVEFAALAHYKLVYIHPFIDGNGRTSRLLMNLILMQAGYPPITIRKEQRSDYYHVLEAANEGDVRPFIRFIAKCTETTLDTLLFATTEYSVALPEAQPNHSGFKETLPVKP
Assay: Isothermal titration calorimetry (ITC) with Δ104hFicD^L258D
Format: binding
Settings: 4 mM MgCl2
Source text: To further support this notion, we used Isothermal Titration Calorimetry (ITC) to determine the Kd of FPP binding. […] In these experiments, the interaction between FPP and Mg^2+ generated endothermic peaks that interfered with detecting the interaction between FPP, Mg^2+, and FicD (Fig. 3, Upper). The stoichiometry of FPP binding to FicD was consistently <0.85, which may indicate that Mg^2+ was not saturating. Because the endothermic interaction between Mg^2+ and FPP limited the quantity of MgCl2 we could add, the measured Kd could be larger than the true value.
Fig. 3. ITC with FicD and Farnesyl-pyrophosphate. Representative ITC thermogram for FPP binding to Δ104hFicD^L258D (Upper). […] Dissociation constants (Kd) of individual replicates and global fitting of triplicate isotherms are reported with 1σ error intervals in parenthesis. TEXT PRINTED IN THE PICTURE: no label printed: Kd (nM): 32.3 (15.6, 54.9) (Replicate 1); Kd (nM): 25.6 (10.1, 47.7) (Replicate 2); Kd (nM): 45.2 (29.4, 68.8) (Replicate 3); Kd (nM): 60.3 (23.1, 126.3) (Global) DOUBTS OF THE COPYIST ABOUT THIS PICTURE: The picture prints no substance label; the table rows are replicates and a global fit of one measurement, so all four Kd values are given under one unlabeled substance. […]
Isothermal Titration Calorimetry
Proteins were dialyzed against 25mM HEPES pH 7.4/100mM KCl/10% glycerol prior to titration.
Dialyzed proteins were then spun down at 21,000G for 15 minutes at 4C to remove trace insoluble material. The protein concentration was measured spectrophotometrically and then diluted to working concentration with 25mM HEPES pH 7.4/100mM KCl/10% glycerol. MgCl2 was added to proteins to a final concentration of 4mM. ITC experiments were performed in a Micro-Cal PEAQ-ITC (Malvern Panalytical, Worcestershire, UK) calorimeter with a stirred 206.2 μL reaction cell held at 20 °C. 250μM FPP was titrated into 25uM Δ104hFicL258D with 750rpm stirring. The first injection was 0.5 μL, followed by twenty 1.9 μL injections. ITC data were integrated and baseline corrected using NITPIC 2.1.5 (10, 11). Integrated data was globally analyzed in SEDPHAT 15.b (12) using a model considering a single class of binding sites. […]
10% Lithium dodecyl sulfate, 50% glycerol, 50mM DTT, 0.05% Bromophenol blue) and then heated […]
For deAMPylation assays with FicD and BiP, Δ26hBiPT229A was in-vitro AMPylated by […]
5mM MgCl2, 500uM ATP, 0.5% CHAPS, 1mM DTT. After one hour of incubation at 30-37C, the entire reaction mix was transferred into an Amicon 0.5mL 50kDa MWCO concentrator (cat no.
7.4/150mM NaCl/10% glycerol/1mM DTT was added to the concentrated AMPylation reaction and then spun down again at 14,000 x g at 4C for 5-10 minutes. This step was repeated four times to buffer exchange AMPylated Δ26hBiPT229A.
Δ104hFicDWT and Δ26hBiPT229A-AMP were combined at a ratio of 1:80 in buffer containing 25mM HEPES pH 7.4, 100mM KCl, 5mM MgCl2, 1mM DTT and the indicated small molecule where applicable. Reactions were incubated at 37C for 1 hour and stopped by the addition EDTA. 5X SDS sample buffer (250mM Tris pH 6.8, 10% Lithium dodecyl sulfate, 50% glycerol, 50mM DTT, 0.05% Bromophenol blue) was then added to the reactions and reactions were heated for 5 minutes at […]
For in-vitro AMPylation assays with VopS and CDC42, Δ30VopS and GST-CDC42 – provided by a previous lab member – were combined at a 1:80 molar ratio in 50mM Tris pH 7.4/100mM NaCl/1mM DTT in the presence of GPP or FPP, where applicable. […]

Structure (SMILES): CC(C)=CCC/C(C)=C/CC/C(C)=C/COP(=O)(O)OP(=O)(O)O [FPP, farnesyl-pyrophosphate]
- stoichiometry of binding to FicD (ITC): < 0.85
